For 20 compounds, T/C results are on record in PubChem BioAssay AID270 (DTP/NCI, 2004).

Values joined by “and” are separate entries in the source; they are usually repeats but may differ in a detail not shown here. Equal entries are not always repeated. Records with an inconclusive call do not appear.

The test deals with BDF1 mice, s.c. Lewis lung carcinoma, T/C %. Put plainly: NCI In Vivo Anticancer Drug Screen. Data for tumor model Lewis Lung Carcinoma (subcutaneous) in B6D2F1 (BDF1) mice. In short, it runs like this:
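Antitumor effect in vivo is scored from survival or tumor burden, reported as treated relative to vehicle controls.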

Where [1] appears, read: endpoint: mean tumor weight, dose: 100.0 mg/kg/injection, schedule: Q01DX011 (ip), vehicle: saline, higher = larger tumour.
The mark [2] stands for this setting: endpoint: mean tumor weight, dose: 100.0 mg/kg/injection, schedule: Q01DX011 (ip), vehicle: carboxymethylcellulose (CMC), higher = larger tumour.
Where [3] appears, read: endpoint: mean tumor weight, dose: 200.0 mg/kg/injection, schedule: Q01DX011 (ip), vehicle: carboxymethylcellulose (CMC), higher = larger tumour.
[4] abbreviates: endpoint: mean tumor weight, dose: 10.0 mg/kg/injection, schedule: Q01DX011 (ip), vehicle: saline, higher = larger tumour.
The mark [5] stands for this setting: endpoint: mean tumor weight, dose: 200.0 mg/kg/injection, schedule: Q01DX011 (ip), vehicle: saline, higher = larger tumour.

On to `CSc1ncnc2c1ncn2C1CCCO1` (stereo not drawn), for which the T/C reads like this: (endpoint: mean tumor weight, dose: 10.0 mg/kg/injection, schedule: Q01DX011 (ip), vehicle: other, higher = larger tumour) 103 % of control; (endpoint: mean tumor weight, dose: 20.0 mg/kg/injection, schedule: Q01DX011 (ip), vehicle: other, higher = larger tumour) 53 % of control; (endpoint: mean tumor weight, dose: 40.0 mg/kg/injection, schedule: Q01DX011 (ip), vehicle: other, higher = larger tumour) 68 % of control; (endpoint: mean tumor weight, dose: 80.0 mg/kg/injection, schedule: Q01DX011 (ip), vehicle: other, higher = larger tumour) 86 % of control.
Take `CNC(C)C(O)c1ccccc1` (stereo not drawn): the T/C (endpoint: mean tumor weight, dose: 66.6 mg/kg/injection, schedule: Q01DX011 (ip), vehicle: saline, higher = larger tumour) was 109 % of control.
Consider `CCOCCCN`, for which the T/C was 106 % of control (endpoint: mean tumor weight, dose: 44.0 mg/kg/injection, schedule: Q01DX011 (ip), vehicle: saline, higher = larger tumour); 97 % of control (endpoint: mean tumor weight, dose: 66.0 mg/kg/injection, schedule: Q01DX011 (ip), vehicle: saline, higher = larger tumour); 123 % of control under setting [1]; 101 % of control (endpoint: mean tumor weight, dose: 148.0 mg/kg/injection, schedule: Q01DX011 (ip), vehicle: saline, higher = larger tumour).
Regarding `CC/C(=C(\CC)c1ccc(OC)cc1)c1ccc(O)cc1`, the T/C (endpoint: mean tumor weight, dose: 15.0 mg/kg/injection, schedule: Q01DX011 (sc), vehicle: steriod suspending solution, higher = larger tumour) was 54 % of control; the T/C (endpoint: mean tumor weight, dose: 30.0 mg/kg/injection, schedule: Q01DX011 (sc), vehicle: steriod suspending solution, higher = larger tumour) is 35 % of control; the T/C (endpoint: mean tumor weight, dose: 60.0 mg/kg/injection, schedule: Q01DX011 (sc), vehicle: steriod suspending solution, higher = larger tumour) is 23 % of control; the T/C (endpoint: mean tumor weight, dose: 100.0 mg/kg/injection, schedule: Q01DX011 (sc), vehicle: steriod suspending solution, higher = larger tumour) is 7 % of control; the T/C (endpoint: mean tumor weight, dose: 120.0 mg/kg/injection, schedule: Q01DX011 (sc), vehicle: steriod suspending solution, higher = larger tumour) was 31 % of control and 36 % of control; the T/C (endpoint: mean tumor weight, dose: 200.0 mg/kg/injection, schedule: Q01DX011 (sc), vehicle: steriod suspending solution, higher = larger tumour) is 22 % of control. Besides, the T/C reads like this: (endpoint: mean tumor weight, dose: 240.0 mg/kg/injection, schedule: Q01DX011 (sc), vehicle: steriod suspending solution, higher = larger tumour) 31 % of control; (endpoint: mean tumor weight, dose: 300.0 mg/kg/injection, schedule: Q01DX011 (sc), vehicle: steriod suspending solution, higher = larger tumour) 22 % of control.
In the case of `O=c1[nH]c(=O)n(C2CC(O)C(CO)O2)cc1Br` (stereo not drawn), the T/C (endpoint: mean tumor weight, dose: 50.0 mg/kg/injection, schedule: Q01DX011 (ip), vehicle: carboxymethylcellulose (CMC), higher = larger tumour) was 67 % of control; the T/C under setting [2] was 88 % of control; the T/C under setting [3] is 41 % of control; the T/C (endpoint: mean tumor weight, dose: 400.0 mg/kg/injection, schedule: Q01DX011 (ip), vehicle: carboxymethylcellulose (CMC), higher = larger tumour) is 53 % of control.
Consider `Cc1ccc(N=NN(C)C)cc1`, for which the T/C was 67 % of control (endpoint: mean tumor weight, dose: 15.0 mg/kg/injection, schedule: Q01DX011 (ip), vehicle: other, higher = larger tumour) and 57 % of control (endpoint: mean tumor weight, dose: 60.0 mg/kg/injection, schedule: Q01DX011 (ip), vehicle: other, higher = larger tumour).
In the case of `Nc1ccc2nc3ccc(N)cc3[n+](-c3ccccc3)c2c1`, the T/C (endpoint: median survival time, dose: 2.0 mg/kg/injection, schedule: Q01DX009 (ip), vehicle: saline, higher = longer survival) is 88 % of control.
As to `CCOC(=O)[C@H]1CCC[C@@H](NC(=O)N(CCCl)N=O)C1`, the T/C is 55 % of control (endpoint: median tumor weight (est.), dose: 20.0 mg/kg/injection, schedule: Q01DX001 (ip), vehicle: gum acacia, higher = larger tumour) and 34 % of control (endpoint: median tumor weight (est.), dose: 30.0 mg/kg/injection, schedule: Q01DX001 (ip), vehicle: gum acacia, higher = larger tumour).
Regarding `O=C(O)C(=O)O.[U]`, the T/C by setting is: (endpoint: mean tumor weight, dose: 5.0 mg/kg/injection, schedule: Q01DX011 (ip), vehicle: carboxymethylcellulose (CMC), higher = larger tumour) 37 % of control; (endpoint: mean tumor weight, dose: 10.0 mg/kg/injection, schedule: Q01DX011 (ip), vehicle: carboxymethylcellulose (CMC), higher = larger tumour) 55 % of control and 78 % of control; under setting [4], 42 % of control; (endpoint: mean tumor weight, dose: 20.0 mg/kg/injection, schedule: Q01DX011 (ip), vehicle: saline, higher = larger tumour) 27 % of control; (endpoint: median survival time, dose: 4.0 mg/kg/injection, schedule: Q01DX009 (ip), vehicle: Klucel (hydroxypropylcellulose) (HPC), higher = longer survival) 103 % of control; (endpoint: median survival time, dose: 16.0 mg/kg/injection, schedule: Q01DX009 (ip), vehicle: Klucel (hydroxypropylcellulose) (HPC), higher = longer survival) 101 % of control.
Take `C[n+]1cccc(C(=O)O)c1`: the T/C is 116 % of control (endpoint: mean tumor weight, dose: 50.0 mg/kg/injection, schedule: Q01DX011 (ip), vehicle: saline, higher = larger tumour); 75 % of control under setting [1]; 60 % of control under setting [5].
On to `CC1OC(O[C@@H]2C=C3CC[C@@H]4[C@H](CC[C@]5(C)[C@@H](c6ccc(=O)oc6)CC[C@]45O)[C@@]3(C)CC2)C(O)C(O)C1O` (stereo partly drawn), for which the T/C runs as follows: (endpoint: mean tumor weight, dose: 1.25 mg/kg/injection, schedule: Q01DX011 (ip), vehicle: saline, higher = larger tumour) 114 % of control; (endpoint: mean tumor weight, dose: 2.5 mg/kg/injection, schedule: Q01DX011 (ip), vehicle: saline, higher = larger tumour) 90 % of control; (endpoint: mean tumor weight, dose: 5.0 mg/kg/injection, schedule: Q01DX011 (ip), vehicle: saline, higher = larger tumour) 64 % of control; under setting [4], 83 % of control.
Turning to `O=[N+]([O-])c1ccc2c(N=Nc3ccc4ccccc4c3O)c(O)cc(S(=O)(=O)O)c2c1`, the T/C (endpoint: median survival time, dose: 37.5 mg/kg/injection, schedule: Q01DX009 (ip), vehicle: saline, higher = longer survival) was 101 % of control; the T/C (endpoint: median survival time, dose: 75.0 mg/kg/injection, schedule: Q01DX009 (ip), vehicle: saline, higher = longer survival) is 109 % of control; the T/C (endpoint: median survival time, dose: 150.0 mg/kg/injection, schedule: Q01DX009 (ip), vehicle: saline, higher = longer survival) is 94 % of control.
Consider `Clc1ccc(C(c2ccccc2Cl)C(Cl)Cl)cc1` (stereo not drawn), for which the T/C is 98 % of control (endpoint: mean tumor weight, dose: 62.5 mg/kg/injection, schedule: Q01DX011 (sc), vehicle: steriod suspending solution, higher = larger tumour); 113 % of control (endpoint: mean tumor weight, dose: 125.0 mg/kg/injection, schedule: Q01DX011 (sc), vehicle: steriod suspending solution, higher = larger tumour); 84 % of control (endpoint: mean tumor weight, dose: 250.0 mg/kg/injection, schedule: Q01DX011 (sc), vehicle: steriod suspending solution, higher = larger tumour); 99 % of control (endpoint: mean tumor weight, dose: 500.0 mg/kg/injection, schedule: Q01DX011 (sc), vehicle: steriod suspending solution, higher = larger tumour).
For the compound `NC(CSC(c1ccccc1)(c1ccccc1)c1ccccc1)C(=O)O` (stereo not drawn), the T/C reads like this: (endpoint: mean tumor weight, dose: 12.0 mg/kg/injection, schedule: Q01DX011 (ip), vehicle: methylcellulose (MC), higher = larger tumour) 115 % of control; (endpoint: median survival time, dose: 8.0 mg/kg/injection, schedule: Q01DX009 (ip), vehicle: Klucel (hydroxypropylcellulose) (HPC), higher = longer survival) 120 % of control; (endpoint: median survival time, dose: 32.0 mg/kg/injection, schedule: Q01DX009 (ip), vehicle: Klucel (hydroxypropylcellulose) (HPC), higher = longer survival) 112 % of control.
Turning to `O=C(Nc1ccc(C2=NCCN2)cc1)c1cc(Cl)cc(C(=O)Nc2ccc(C3=NCCN3)cc2)c1`, the T/C is 93 % of control under setting [1]; 66 % of control under setting [5]; 51 % of control (endpoint: mean tumor weight, dose: 400.0 mg/kg/injection, schedule: Q01DX011 (ip), vehicle: saline, higher = larger tumour); 21 % of control (endpoint: mean tumor weight, dose: 800.0 mg/kg/injection, schedule: Q01DX011 (ip), vehicle: saline, higher = larger tumour).
Regarding `C=C(C)C1CC=C(C)CC1` (stereo not drawn), the T/C is, setting by setting: under setting [2], 65 % of control; under setting [3], 43 % of control.
With `Nc1nc(N)nc(N)n1`, the T/C reads like this: (endpoint: median survival time, dose: 100.0 mg/kg/injection, schedule: Q01DX009 (ip), vehicle: saline with Tween-80, higher = longer survival) 103 % of control; (endpoint: median survival time, dose: 200.0 mg/kg/injection, schedule: Q01DX009 (ip), vehicle: saline with Tween-80, higher = longer survival) 95 % of control; (endpoint: median survival time, dose: 400.0 mg/kg/injection, schedule: Q01DX009 (ip), vehicle: saline with Tween-80, higher = longer survival) 98 % of control.
As for `CC(=O)Nc1cc2c(cc1Br)-c1ccccc1C2O` (stereo not drawn), the T/C is 47 % of control and 62 % of control and 69 % of control (endpoint: mean tumor weight, dose: 24.0 mg/kg/injection, schedule: Q01DX011 (ip), vehicle: saline, higher = larger tumour); 31 % of control and 52 % of control and 53 % of control (endpoint: mean tumor weight, dose: 55.0 mg/kg/injection, schedule: Q01DX011 (ip), vehicle: saline, higher = larger tumour); 26 % of control (endpoint: mean tumor weight, dose: 444.0 mg/kg/injection, schedule: Q01DX011 (ip), vehicle: saline, higher = larger tumour); 19 % of control (endpoint: mean tumor weight, dose: 666.0 mg/kg/injection, schedule: Q01DX011 (ip), vehicle: saline, higher = larger tumour).
As for `CN(C)Cc1c[nH]c2ccccc12`, the T/C is, setting by setting: (endpoint: mean tumor weight, dose: 26.6 mg/kg/injection, schedule: Q01DX011 (ip), vehicle: carboxymethylcellulose (CMC), higher = larger tumour) 94 % of control; (endpoint: mean tumor weight, dose: 40.0 mg/kg/injection, schedule: Q01DX011 (ip), vehicle: carboxymethylcellulose (CMC), higher = larger tumour) 70 % of control; (endpoint: mean tumor weight, dose: 60.0 mg/kg/injection, schedule: Q01DX011 (ip), vehicle: carboxymethylcellulose (CMC), higher = larger tumour) 62 % of control; (endpoint: mean tumor weight, dose: 90.0 mg/kg/injection, schedule: Q01DX011 (ip), vehicle: carboxymethylcellulose (CMC), higher = larger tumour) 57 % of control.
Regarding `C=C(C)C12CC(COC(=O)c3ccccc3)C34OC5(OC1C3C1OC1(CO)C(O)C1(O)C(OC(=O)c3ccccc3)C(C)C(C(C)CCCCCCC5O)C14)O2` (stereo not drawn), the T/C by setting is: (endpoint: median survival time, dose: 3.8 micrograms/kg/injection, schedule: Q01DX009 (ip), vehicle: saline, higher = longer survival) 107 % of control; (endpoint: median survival time, dose: 7.5 micrograms/kg/injection, schedule: Q01DX009 (ip), vehicle: saline, higher = longer survival) 100 % of control.
